# US11214565B2, “Compound, compositions, and methods” (Denali Therapeutics Inc., priority 2015, dated 2022)
# Molecular target: LRRK2 G2019S enzyme (Homo sapiens (Human), UniProt Q5S007, G2019S)
# Experiment: LRRK2 G2019S TR-FRET biochemical kinase assay (LRRKtide substrate)
# Conditions: Table D-4; 5 nM LRRK2, 134 μM ATP, 60 minute reaction, 23° C.
# In short: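 5 nM LRRK2 G2019S preincubated 20 min with LRRKtide and compound (3.162-fold dilution series) in Tris pH 7.5, MgCl2, EGTA, Brij-35, DTT, then reacted 60 min at 23 °C with 134 μM ATP. EDTA-stopped; pLRRKtide antibody detection, TR-FRET read at 340 nm excitation, 520/490–495 nm emission.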
# Sequence of LRRK2 G2019S enzyme (Q5S007 whole entry G2019S): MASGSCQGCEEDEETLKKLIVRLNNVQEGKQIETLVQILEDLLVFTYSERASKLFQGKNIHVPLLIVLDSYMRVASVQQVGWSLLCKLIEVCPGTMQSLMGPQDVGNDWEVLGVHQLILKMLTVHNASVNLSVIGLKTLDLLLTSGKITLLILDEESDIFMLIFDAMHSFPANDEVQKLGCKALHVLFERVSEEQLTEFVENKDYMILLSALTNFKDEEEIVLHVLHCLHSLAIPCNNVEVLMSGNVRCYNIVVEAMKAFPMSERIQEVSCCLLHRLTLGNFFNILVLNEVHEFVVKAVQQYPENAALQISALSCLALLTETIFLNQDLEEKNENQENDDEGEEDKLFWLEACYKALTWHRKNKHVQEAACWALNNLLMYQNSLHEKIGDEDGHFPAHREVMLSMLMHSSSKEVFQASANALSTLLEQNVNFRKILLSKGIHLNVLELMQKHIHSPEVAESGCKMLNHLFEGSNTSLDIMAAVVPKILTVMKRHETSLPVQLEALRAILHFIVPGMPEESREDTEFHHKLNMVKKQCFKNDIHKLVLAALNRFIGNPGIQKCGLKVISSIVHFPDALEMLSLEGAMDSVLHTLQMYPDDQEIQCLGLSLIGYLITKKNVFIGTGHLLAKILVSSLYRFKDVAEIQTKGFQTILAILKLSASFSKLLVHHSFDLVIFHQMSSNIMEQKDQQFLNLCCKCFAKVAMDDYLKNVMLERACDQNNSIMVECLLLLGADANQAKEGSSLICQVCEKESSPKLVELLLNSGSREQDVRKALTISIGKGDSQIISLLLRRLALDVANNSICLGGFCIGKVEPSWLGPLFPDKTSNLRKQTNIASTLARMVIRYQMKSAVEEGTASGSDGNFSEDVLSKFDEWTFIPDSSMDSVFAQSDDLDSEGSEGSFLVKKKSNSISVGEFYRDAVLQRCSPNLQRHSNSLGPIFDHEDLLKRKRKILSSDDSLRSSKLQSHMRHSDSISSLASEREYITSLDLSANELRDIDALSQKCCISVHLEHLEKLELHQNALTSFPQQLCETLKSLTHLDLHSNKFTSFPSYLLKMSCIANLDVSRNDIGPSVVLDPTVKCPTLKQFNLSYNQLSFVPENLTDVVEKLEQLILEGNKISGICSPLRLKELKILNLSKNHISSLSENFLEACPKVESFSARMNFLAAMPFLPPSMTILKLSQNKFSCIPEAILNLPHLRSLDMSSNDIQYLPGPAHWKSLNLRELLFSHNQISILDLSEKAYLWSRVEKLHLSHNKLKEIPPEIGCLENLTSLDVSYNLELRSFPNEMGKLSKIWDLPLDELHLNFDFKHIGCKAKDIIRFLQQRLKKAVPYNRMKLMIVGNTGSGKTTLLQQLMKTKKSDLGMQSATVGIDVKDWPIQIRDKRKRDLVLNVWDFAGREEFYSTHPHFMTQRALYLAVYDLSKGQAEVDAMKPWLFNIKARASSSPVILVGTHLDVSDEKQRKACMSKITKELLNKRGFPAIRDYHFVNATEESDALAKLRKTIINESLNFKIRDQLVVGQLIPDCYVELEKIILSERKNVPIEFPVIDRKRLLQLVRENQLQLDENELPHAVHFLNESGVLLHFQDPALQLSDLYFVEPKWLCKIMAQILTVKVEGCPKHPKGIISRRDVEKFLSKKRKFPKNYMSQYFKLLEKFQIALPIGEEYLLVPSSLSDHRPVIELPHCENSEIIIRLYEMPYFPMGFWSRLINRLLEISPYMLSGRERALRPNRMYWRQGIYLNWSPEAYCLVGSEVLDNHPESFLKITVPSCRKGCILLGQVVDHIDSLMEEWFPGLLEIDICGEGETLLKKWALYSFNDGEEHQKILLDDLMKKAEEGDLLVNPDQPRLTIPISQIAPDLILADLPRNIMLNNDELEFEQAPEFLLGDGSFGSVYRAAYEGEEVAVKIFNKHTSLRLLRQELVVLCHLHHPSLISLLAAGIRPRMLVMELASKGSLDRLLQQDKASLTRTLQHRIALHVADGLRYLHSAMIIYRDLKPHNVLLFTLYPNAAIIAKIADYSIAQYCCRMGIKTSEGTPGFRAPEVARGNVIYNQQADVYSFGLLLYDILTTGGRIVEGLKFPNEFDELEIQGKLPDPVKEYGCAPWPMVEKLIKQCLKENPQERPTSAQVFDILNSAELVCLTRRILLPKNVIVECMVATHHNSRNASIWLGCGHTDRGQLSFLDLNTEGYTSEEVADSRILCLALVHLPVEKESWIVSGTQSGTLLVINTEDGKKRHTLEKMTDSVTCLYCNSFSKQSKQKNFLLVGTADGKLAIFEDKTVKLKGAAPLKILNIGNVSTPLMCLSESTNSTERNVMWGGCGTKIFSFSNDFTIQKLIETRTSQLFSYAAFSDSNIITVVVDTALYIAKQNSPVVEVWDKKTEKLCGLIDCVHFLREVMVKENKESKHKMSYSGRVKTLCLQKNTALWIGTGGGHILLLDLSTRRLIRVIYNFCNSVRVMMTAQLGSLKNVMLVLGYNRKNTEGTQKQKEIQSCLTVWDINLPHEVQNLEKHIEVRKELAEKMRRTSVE
row,IC50 [nM],SMILES
1,< 30,CNc1nc(Nc2cnn([C@](C)(C#N)CF)c2C)ncc1C(F)(F)F [Compounds D-190]
2,< 30,CNc1nc(Nc2cnn([C@@](C)(C#N)CF)c2C)ncc1C(F)(F)F [Compounds D-191]
3,< 30,CNc1nc(Nc2cnn([C@](C)(C#N)C(F)F)c2C)ncc1C(F)(F)F [Compounds D-199]
4,< 30,CNc1nc(Nc2cnn([C@@](C)(C#N)C(F)F)c2C)ncc1C(F)(F)F [Compounds D-200]
5,< 30,Cc1c(Nc2ncc(C(F)(F)F)c(NC3CC3)n2)cnn1[C@](C)(C#N)CF [Compounds D-201]
6,< 30,Cc1c(Nc2ncc(C(F)(F)F)c(NC3CC3)n2)cnn1C(C)(C#N)CF [Compounds D-202]
7,> 60,CCNc1nc(Nc2cnn([C@@]3(C)CCn4ccnc43)c2C)ncc1C(F)(F)F [Compounds D-205]
8,< 30,CCNc1nc(Nc2cnn([C@]3(C)CCn4ccnc43)c2C)ncc1C(F)(F)F [Compounds D-206]
